This is an account of results in US20160075653A1, “NEMATICIDAL N-(PHENYLCYCLOALKYL)CARBOXAMIDES AND N-(PHENYLCYCLOALKYL)THIOCARBOXAMIDES” (BAYER CROPSCIENCE AKTIENGESELLSCHAFT, priority 2013, published 2016).

Read-outs that look alike come from different tables or passages of the source.

Data set [1] can be described thus: Measurement of log P values by HPLC on reversed phase columns (methods [a] pH 2.3, [b] pH 2.7, [c] pH 7.8). It counts as physicochemical. Conditions: for chromatographic logP: reversed phase HPLC columns, read-out: logP. The method, boiled down: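 Retention times were converted to log P by linear interpolation between linear alkan-2-one standards (3 to 16 carbons) of known log P. Eluents, each with 10% to 95% acetonitrile gradient: phosphoric acid 0.1% at pH 2.3 [a]; formic acid 0.1% at pH 2.7, LC-MS [b]; ammonium hydrogen carbonate 0.001 molar at pH 7.8, LC-MS [c].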

The test system of data set [2] is Boophilus microplus. The experiment in a line: Boophilus microplus injection test (BOOPMI Inj). It counts as in vivo. As to conditions: application rate 20 μg/animal, injection into abdomen of adult engorged female ticks, after 7 days. Here is the method:
Boonhilus micronlus—Injectiontest (BOOPMI Inj)
Solvent: dimethyl sulfoxide
To produce a suitable preparation of active compound, 10 mg of active compound are dissolved in 0.5 ml solvent, and the concentrate is diluted with solvent to the desired concentration.
Five adult engorged female ticks (Boophilus microplus) are injected with 1 μl compound solution into the abdomen. Ticks are transferred into replica plates and incubated in a climate chamber.
After 7 days the egg deposition of fertile eggs is monitored. Eggs where fertility is not visible are stored in a climate chamber till hatching after about 42 days. An efficacy of 100% means that all eggs are infertile; 0% means that all eggs are fertile.

The subject of data set [3] is Cooperia curticei. Briefly: Cooperia curticei test (COOPCU), larval mortality. As to conditions: for activity (larval mortality): application rate 4 ppm, after 5 days; for mortality at 20 ppm: Cooperia curticei, 120 h, read-out: activity (larval mortality). It counts as in vivo. The protocol:
Cooneria curtice—Test (COOPCU) Solvent: dimethyl sulfoxide
(§1) To produce a suitable preparation of active compound, 10 mg of active compound are dissolved in 0.5 ml solvent, and the concentrate is diluted with “Ringer's solution” to the desired concentration.
Approximately 40 nematode larvae (Cooperia curticei) are transferred into a test tube containing the compound solution.
After 5 days percentage of larval mortality is recorded. 100% efficacy means all larvae are killed; 0% efficacy means no larvae are killed.

The subject of data set [4] is Meloidogyne incognita. Briefly: Meloidogyne incognita test (MELGIN), gall formation on salad seedlings. It counts as in vivo. As to conditions: application rate 20 ppm, after 14 days. Summed up:
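Sand vessels treated with acetone-formulated compound diluted in water, then inoculated with M. incognita eggs and larvae and sown with salad seeds. Root galling assessed after 14 days: 100% = no galls, 0% = galling equal to untreated plants.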

In data set [5] the test system is Haemonchus contortus. The experiment in a line: Haemonchus contortus test (HAEMCO), larval mortality. The data set is classed as in vivo. Conditions: 120 h, read-out: activity (larval mortality). The protocol:
Haemonchus contortus—Test (HAEMCO) Solvent: dimethyl sulfoxide
as §1
Approximately 40 larvae of the red stomach worm (Haemonchus contortus) are transferred into a test tube containing compound solution.
After 5 days percentage of larval mortality are recorded. 100% efficacy means all larvae are killed, 0% efficacy means no larvae are killed.

[6] abbreviates: HPLC reversed phase, method [b] (pH 2.7).
Setting [7] is: pH 2.7, HPLC reversed phase, method [b] (pH 2.7).
The mark [8] stands for this setting: HPLC reversed phase, method [c] pH 7.8.
The mark [9] stands for this setting: HPLC on reversed phase column, method [b], pH 2.7.
Where [10] appears, read: HPLC on reversed phase column, method [c], pH 7.8.

By mortality is commonly meant the share of the test organisms that died.

As to `Cc1nn(C)c(F)c1C(=O)N[C@@H]1C[C@H]1c1ccccc1Cl` (relative stereo) [Compound 49], the logP in data set [1] (HPLC on reversed phase columns, method [b], pH 2.7) is 2.40^[b]. For the same compound, the “activity (efficacy: infertile eggs)” value in data set [2] was determined as 80%.

Turning to `O=C(N[C@@H]1C[C@@H]1c1ccc(Cl)cc1Cl)c1ccccc1Br` (relative stereo) [Compound 579], the “activity (larval mortality)” value in data set [3] stood at 80%. In data set [1] (setting [6]), the logP is 3.32^[b].

For the compound `O=C(NC1CCC1c1c(F)cccc1F)c1ccccc1I` (centres unmarked) [Compound 440], in data set [4], the “nematicidal activity (percentage of gall formation; 100% = no galls)” value is on record as 90%. Moreover, the logP in data set [1] (setting [6]) is 3.13^[b].

As for `O=C(NC1CCC1c1c(F)cccc1F)c1ccccc1Cl` (centres unmarked) [Compound 443], in data set [4], the “nematicidal activity (percentage of gall formation; 100% = no galls)” value amounted to 90%. Besides, the logP in data set [1] (setting [6]) was 2.97^[b].

As for `O=C(NC1CCC1c1ccc(Cl)cc1Cl)c1ccccc1` (centres unmarked) [Compound 451], the “activity (larval mortality)” value in data set [3] is reported as 90%. Also, the logP in data set [1] (setting [6]) is 3.30^[b].

For `O=C(N[C@@H]1CC[C@@H]1c1ccc(Cl)cc1Cl)c1ccccc1I` [Compound 456], the mortality at 20 ppm in data set [3] and in data set [5] was 100% throughout. The “nematicidal activity (percentage of gall formation; 100% = no galls)” value in data set [4] was found to be 100%. For the same compound, the chromatographic logP in data set [1] (setting [7]) stood at 3.75.

Take `O=C(NC1CC1c1ccc(Cl)cc1)c1nccnc1Cl` (centres unmarked) [Compound 461]: the “nematicidal activity (percentage of gall formation; 100% = no galls)” value in data set [4] is reported as 100%. In addition, the logP in data set [1] (setting [6]) was 2.29^[b]; in data set [1] (setting [8]), 2.27^[c];.

`O=C(NC1CC1c1ccc(Cl)cc1)c1ncccc1C(F)(F)F` (centres unmarked) [Compound 462]: the “nematicidal activity (percentage of gall formation; 100% = no galls)” value in data set [4] worked out at 100%. Moreover, the logP in data set [1] (setting [6]) was 2.85^[b]; in data set [1] (setting [8]), 2.81^[c];.

Consider `O=C(NC1CC1c1ccc(Cl)cc1)c1cccnc1C(F)F` (centres unmarked) [Compound 465], for which the “nematicidal activity (percentage of gall formation; 100% = no galls)” value in data set [4] is recorded as 100%. In addition, the figures for the logP in data set [1] (setting [6]) and in data set [1] (setting [8]) were 2.15^[b] and 2.14^[c];, respectively.

For the compound `O=C(NC1CCC1c1ccc(Cl)cc1Cl)c1ccccc1Br` (centres unmarked) [Compound 472], the “nematicidal activity (percentage of gall formation; 100% = no galls)” value in data set [4] is 90%. Also, in data set [1] (setting [6]), the logP was 3.60^[b].

Turning to `O=C(NC1CCC1c1ccc(Cl)cc1Cl)c1c(F)cccc1F` (centres unmarked) [Compound 473], the “nematicidal activity (percentage of gall formation; 100% = no galls)” value in data set [4] turned out to be 90%. Also, the logP in data set [1] (setting [6]) was 3.36^[b].

`O=C(NC1CCC1c1ccc(Cl)cc1Cl)c1ccccc1C(F)(F)F` (centres unmarked) [Compound 476]: in data set [4], the “nematicidal activity (percentage of gall formation; 100% = no galls)” value was found to be 90%. Moreover, the logP in data set [1] (setting [6]) is 3.72^[b].

Regarding `O=C(NC1CCC1c1ccc(F)cc1C(F)(F)F)c1ncccc1Cl` (centres unmarked) [Compound 479], the “nematicidal activity (percentage of gall formation; 100% = no galls)” value in data set [4] is 100%. Besides, the logP in data set [1] (setting [6]) was 3.11^[b].

For `O=C(NC1CCC1c1ccc(Cl)cc1Cl)c1cccnc1C(F)(F)F` (centres unmarked) [Compound 481], in data set [4], the “nematicidal activity (percentage of gall formation; 100% = no galls)” value is 100%. Also, in data set [1] (setting [6]), the logP was 3.20^[b].

As to `O=C(NC1CCC1c1ccc(Cl)cc1Cl)c1c(F)cccc1F` (centres unmarked) [Compound 482], in data set [4], the “nematicidal activity (percentage of gall formation; 100% = no galls)” value came out at 90%. In addition, the logP in data set [1] (setting [6]) is 3.70^[b].

`Cn1cc(C(=O)NC2CCC2c2ccc(F)cc2C(F)(F)F)c(C(F)F)n1` (centres unmarked) [Compound 485]: the “nematicidal activity (percentage of gall formation; 100% = no galls)” value in data set [4] turned out to be 90%. In data set [1] (setting [6]), the logP is 2.84^[b].

In the case of `O=C(N[C@@H]1CC[C@@H]1c1c(F)cccc1F)c1ccccc1C(F)(F)F` [Compound 513], the values for the mortality at 20 ppm in data set [3] and in data set [5] were 80% and 90%, respectively. In addition, in data set [4], the “nematicidal activity (percentage of gall formation; 100% = no galls)” value amounted to 100%. Also, the chromatographic logP in data set [1] (setting [7]) is 3.15.

`O=C(NC1CCC1c1cc(F)ccc1C(F)(F)F)c1cccc(Cl)c1` (centres unmarked) [Compound 517]: the “nematicidal activity (percentage of gall formation; 100% = no galls)” value in data set [4] was 100%. Also, the logP in data set [1] (setting [6]) was 3.65^[b].

Regarding `O=C(NC1CCC1c1cc(F)ccc1C(F)(F)F)c1ncccc1Cl` (centres unmarked) [Compound 518], the “nematicidal activity (percentage of gall formation; 100% = no galls)” value in data set [4] is 100%. Further, the logP in data set [1] (setting [6]) was 3.08^[b].

For the compound `O=C(NC1CCC1c1ccc(F)cc1C(F)(F)F)c1sccc1I` (centres unmarked) [Compound 519], the “nematicidal activity (percentage of gall formation; 100% = no galls)” value in data set [4] is 90%. Further, in data set [1] (setting [6]), the logP was 4.09^[b].

On to `O=C(NC1CCC1c1ccc(F)cc1C(F)(F)F)c1sccc1I` (centres unmarked) [Compound 520], for which the “nematicidal activity (percentage of gall formation; 100% = no galls)” value in data set [4] stood at 100%. Further, the logP in data set [1] (setting [6]) was 3.82^[b].

On to `O=C(N[C@@H]1CC[C@@H]1c1ccccc1C(F)(F)F)c1cccnc1Cl` [Compound 621], for which the mortality at 20 ppm came to 100% in data set [3] and 90% in data set [5]. Also, the “nematicidal activity (percentage of gall formation; 100% = no galls)” value in data set [4] turned out to be 100%. Moreover, in data set [1] (pH 2.7, HPLC on reversed phase column, method [b], pH 2.7), the chromatographic logP was 2.64.

As to `O=C(NC1CCC1c1ccccc1C(F)(F)F)c1nccnc1C(F)(F)F` (centres unmarked) [Compound 684], the “nematicidal activity (percentage of gall formation; 100% = no galls)” value in data set [4] is given as 100%. Further, the logP is 3.15^[b] in data set [1] (setting [9]) and 3.10^[c]; in data set [1] (setting [10]).

As to `O=C(NC1CCC1c1ccccc1C(F)(F)F)c1ncccc1Br` (centres unmarked) [Compound 695], the “nematicidal activity (percentage of gall formation; 100% = no galls)” value in data set [4] turned out to be 100%. Besides, the logP in data set [1] (setting [9]) was 3.17^[b]; in data set [1] (setting [10]), 3.10^[c];.
